Experimental data reported in US20240279214A1, “ALPHA4 BETA7 INEGRIN ANTAGONISTS AND USES THEREOF” (XinThera, Inc., priority 2022, published 2024).
pEC50: −log10 of the molar value.

Target: T1, a4b7 integrin interaction with MadCAM-1 (Homo sapiens, UniProt P13612+P26010)
T1 construct: capture of a4b7 integrin expressing cells, RPMI8866; endogenous in cells; host or cells: RPMI8866
T1 sequence (P13612 34-1032): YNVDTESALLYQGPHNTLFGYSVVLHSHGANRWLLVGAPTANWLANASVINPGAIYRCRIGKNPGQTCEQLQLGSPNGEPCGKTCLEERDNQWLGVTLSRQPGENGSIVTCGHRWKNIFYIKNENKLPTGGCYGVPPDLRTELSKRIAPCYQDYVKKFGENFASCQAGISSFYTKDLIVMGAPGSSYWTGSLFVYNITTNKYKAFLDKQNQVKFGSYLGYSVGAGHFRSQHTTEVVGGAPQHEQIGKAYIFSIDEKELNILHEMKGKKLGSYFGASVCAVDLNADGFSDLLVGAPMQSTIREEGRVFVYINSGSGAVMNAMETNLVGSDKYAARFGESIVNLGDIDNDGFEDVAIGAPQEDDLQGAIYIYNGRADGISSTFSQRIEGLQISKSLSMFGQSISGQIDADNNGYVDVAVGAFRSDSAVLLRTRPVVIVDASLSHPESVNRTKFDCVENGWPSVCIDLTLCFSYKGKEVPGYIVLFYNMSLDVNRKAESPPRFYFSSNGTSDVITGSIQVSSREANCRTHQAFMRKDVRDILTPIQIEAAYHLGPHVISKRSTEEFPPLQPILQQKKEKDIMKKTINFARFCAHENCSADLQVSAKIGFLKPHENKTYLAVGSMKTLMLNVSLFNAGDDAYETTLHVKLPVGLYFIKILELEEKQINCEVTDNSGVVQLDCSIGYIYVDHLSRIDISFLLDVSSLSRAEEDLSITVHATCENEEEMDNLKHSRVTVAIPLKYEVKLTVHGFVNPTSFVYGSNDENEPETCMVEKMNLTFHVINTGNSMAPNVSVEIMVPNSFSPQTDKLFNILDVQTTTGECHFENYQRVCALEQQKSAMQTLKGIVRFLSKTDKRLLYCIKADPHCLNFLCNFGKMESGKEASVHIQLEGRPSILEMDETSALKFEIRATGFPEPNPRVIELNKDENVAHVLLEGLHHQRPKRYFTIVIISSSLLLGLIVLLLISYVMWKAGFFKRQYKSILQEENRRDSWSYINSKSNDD
T1 sequence (P26010 20-798): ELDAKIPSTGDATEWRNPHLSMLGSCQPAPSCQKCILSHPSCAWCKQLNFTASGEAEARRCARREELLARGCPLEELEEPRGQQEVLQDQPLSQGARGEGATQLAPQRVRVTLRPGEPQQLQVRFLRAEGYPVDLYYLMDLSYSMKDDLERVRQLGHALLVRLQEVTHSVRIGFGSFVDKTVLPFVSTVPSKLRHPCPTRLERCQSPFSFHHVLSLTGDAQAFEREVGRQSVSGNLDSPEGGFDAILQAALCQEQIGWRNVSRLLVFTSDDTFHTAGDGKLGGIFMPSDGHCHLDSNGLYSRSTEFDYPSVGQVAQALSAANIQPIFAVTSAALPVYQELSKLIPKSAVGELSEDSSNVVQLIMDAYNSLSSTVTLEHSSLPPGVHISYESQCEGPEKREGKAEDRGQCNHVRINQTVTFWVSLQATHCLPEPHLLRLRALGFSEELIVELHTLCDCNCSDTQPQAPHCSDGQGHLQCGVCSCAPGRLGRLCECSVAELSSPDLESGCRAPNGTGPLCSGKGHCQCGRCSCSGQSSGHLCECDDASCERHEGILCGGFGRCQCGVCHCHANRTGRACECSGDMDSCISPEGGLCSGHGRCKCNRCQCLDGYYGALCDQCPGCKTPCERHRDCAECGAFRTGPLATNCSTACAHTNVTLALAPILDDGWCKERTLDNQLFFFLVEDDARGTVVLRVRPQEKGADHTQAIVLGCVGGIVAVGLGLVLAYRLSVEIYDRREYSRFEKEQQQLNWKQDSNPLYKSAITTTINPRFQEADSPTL
Experiment: a4b7 Cell Capture Assay (RPMI8866 cells on MAdCAM-1 Fc coated plates)
Assay type: cell-based
Settings: 50% human serum, 1 mM MgCl2, 1 hour incubation, CellTiter-Glo luminescence, read-out: a4B7 cell capture assay RMPI8866-MadCAM EC50
Method: The potency of inhibitors in preventing a4b7 integrin interaction with MadCAM-1 was measured by monitoring the capture of a4b7 integrin expressing cells, RPMI8866, on recombinant human MAdCAM-1 Fc chimera protein-coated plates. The protein was a fusion between human MAdCAM-1 (Met1-Gln333, Accession #AAY82472) and human IgG1 (Pro100-Lys330)] (R&D Systems, Catalog #6056-MC). 96-well plates (Thermofisher, Catalog #136102) were coated with the recombinant protein by dispensing 100 μL (1.0 μg/mL) per well. After a quick spin to settle down the coating solution using a plate centrifuge, plates were incubated overnight at 4° C. in a moisture chamber. On Day 2, the plates were washed with PBS using a Bluecatbio Blue®Washer (GentleSpin wash, 3 cycles, pressure=1, volume 150 uL). Blocking solution (1.0% BSA in PBS, Sigma, Catalog #A7979) was then added at 200 uL/well, and the plates were quickly spun to settle down blocking buffer and incubated in cell culture incubator at 37° C. and 5% CO2 for 1 hour. The plates were then washed with 0.1% BSA in PBS using a Bluecatbio Blue®Washer (GentleSpin wash, 3 cycles, pressure=1, volume 150 uL). RPMI8866 cells suspended in assay medium (1 mM MgCl2 25 mM HEPES and 50% human serum, Sigma, Catalog #H4522) at a density of 1.0×10^6 cells/mL were added at 100 uL/well. Each compound evaluated was prepared as a DMSO stock solution. Test compounds were evaluated with a 9-point serial dilution curve (1000, 333.3, 111.1, 55.6, 27.8, 13.9, 6.9, 2.3, and 0.77 nM)) and were added to the plates using a Tecan D.30e Digita dispenser, the dispensed stock is 100 nL and the final DMSO concentration is 0.1%. Potent compounds were re-evaluated at a new 9-point serial dilution curve (100, 33.3, 11.1, 5.6, 2.8, 1.4, 0.69, 0.23, and 0.08 nM). Each titration curves were performed in triplicate on the same plate, and most of compounds were retested in different dates multiple times. The plates were shaken at 300 rpm on orbital plate shaker for 3 minutes to mix the cells and compounds, quickly spun to settle the cells and solution, and incubated in cell culture incubator at 37° C. and 5% CO2. After 1 hour incubation, the unbound cells were washed away with RPMI1640 medium supplemented with 1 mM MgCl2 and 1% BSA) (wash buffer) using a Bluecatbio Blue®Washer (MagbeadsSpin wash, 1 cycle, pressure 1, volume=150 uL). After wash buffer removal, A mixture of wash buffer/CellTiter-Glo® Reagent (Pormega, catalog #G7573) at 1:1 (V/V) was added at volume of 100 uL to each well. The plates were placed in a chamber at 25° C. and incubated for 30 minutes. Luminescence was recorded using a Envision plate reader 2105 according to CellTiter-Glo protocol.
The mean luminescence signals from negative control wells without MadCAM-1 coating and compound treatment (cells only) was defined as 100% binding inhibition, and the mean luminescence signals from positive control wells with MadCAM-1 coating but without compound treatment (MadCAM-1 and cells only) was defined as 0% binding inhibition. The luminescence signals from other compound treated wells were normalized in percentage scale accordingly. The normalized mean % inhibition data were plotted against logarithmic compound concentration in nanomolar and were fitted with 4-parameter logistic model to obtain IC50 for each compound.

Row | SMILES | pEC50
1 | O=C(O)C[C@@H]1NC(=O)[C@@H](n2cc(CCN3CC(F)C3)c(C(F)(F)F)cc2=O)c2cccc(c2)Oc2cccc(Cl)c2-c2cc1c(F)c(C(F)(F)F)c2 (relative stereo) [Example 17, [(14R*,17S)-3-chloro-19-fluoro-14-{5-[2-(3-fluoroazetidin-1-yl)ethyl]-2-oxo-4-(trifluoromethyl)pyridin-1-yl}-15-oxo-20-(trifluoromethyl)-8-oxa-16-azatetracyclo[16.3.1.1^{9,13}.0^{2,7}]tricosa-1(22),2(7),3,5,9,11,13(23),18,20-nonaen-17-yl]acetic acid] | 6.85
2 | Cc1cc2cc(c1F)[C@H](CC(=O)O)NC(=O)[C@@H](n1cc(CCN3CC(F)C3)c(C(F)(F)F)cc1=O)c1cc(cc(C(F)(F)F)c1)Oc1cccc(C)c1-2 (relative stereo) [Example 22, [(14R*,17S)-19-fluoro-14-{5-[2-(3-fluoroazetidin-1-yl)ethyl]-2-oxo-4-(trifluoromethyl)pyridin-1-yl}-3,20-dimethyl-15-oxo-11-(trifluoromethyl)-8-oxa-16-azatetracyclo[16.3.1.1^{9,13}.0^{2,7}]tricosa-1(22),2(7),3,5,9,11,13(23),18,20-nonaen-17-yl]acetic acid] | 8.00
3 | Cc1cc2cc(c1F)[C@H](CC(=O)O)NC(=O)[C@@H](n1cc(CCN(C)C)c(C(F)(F)F)cc1=O)c1cccc(c1)Oc1cccc(C)c1-2 (relative stereo) [Example 23, [(14R*,17S)-14-{5-[2-(dimethylamino)ethyl]-2-oxo-4-(trifluoromethyl)pyridin-1-yl}-19-fluoro-3,20-dimethyl-15-oxo-8-oxa-16-azatetracyclo[16.3.1.1^{9,13}.0^{2,7}]tricosa-1(22),2(7),3,5,9,11,13(23),18,20-nonaen-17-yl]acetic acid] | 8.64

Now from value to compound:

Row | pEC50 | SMILES
4 | 7.85 | Cc1cccc2c1-c1cc(c(F)c(C(F)(F)F)c1)[C@H](CC(=O)O)NC(=O)[C@@H](n1cc(CCN(C)C)c(C(F)(F)F)cc1=O)c1cccc(c1)O2 (relative stereo) [Example 16, [(14R*,17S)-14-{5-[2-(dimethylamino)ethyl]-2-oxo-4-(trifluoromethyl)pyridin-1-yl}-19-fluoro-3-methyl-15-oxo-20-(trifluoromethyl)-8-oxa-16-azatetracyclo[16.3.1.1^{9,13}.0^{2,7}]tricosa-1(22),2(7),3,5,9,11,13(23),18,20-nonaen-17-yl]acetic acid]
5 | 9.08 | Cc1cc2cc(c1F)[C@H](CC(=O)O)NC(=O)[C@@H](n1cc(CCN3CC(F)C3)c(C(F)(F)F)cc1=O)c1cc(ccc1F)Oc1cccc(Cl)c1-2 (relative stereo) [Example 19, [(14R*,17S)-3-chloro-12,19-difluoro-14-{5-[2-(3-fluoroazetidin-1-yl)ethyl]-2-oxo-4-(trifluoromethyl)pyridin-1-yl}-20-methyl-15-oxo-8-oxa-16-azatetracyclo[16.3.1.1^{9,13}.0^{2,7}]tricosa-1(22),2(7),3,5,9,11,13(23),18,20-nonaen-17-yl]acetic acid]
6 | 10.10 | Cc1cc2cc(c1F)[C@H](CC(=O)O)NC(=O)[C@@H](n1cc(CCCN(C)C)c(C(F)(F)F)cc1=O)c1cc(ccc1F)Oc1cccc(C)c1-2 (relative stereo) [Example 20, [(14R*,17S)-14-{5-[3-(dimethylamino)propyl]-2-oxo-4-(trifluoromethyl)pyridin-1-yl}-12,19-difluoro-3,20-dimethyl-15-oxo-8-oxa-16-azatetracyclo[16.3.1.1^{9,13}.0^{2,7}]tricosa-1(22),2(7),3,5,9,11,13(23),18,20-nonaen-17-yl]acetic acid]
7 | 8.72 | Cc1cccc2c1-c1cc(C3CC3)c(F)c(c1)[C@H](CC(=O)O)NC(=O)[C@@H](n1cc(CCN3CC(F)C3)c(C(F)(F)F)cc1=O)c1cc(ccc1F)O2 (relative stereo) [Example 24, [(14R*,17S)-20-cyclopropyl-12,19-difluoro-14-{5-[2-(3-fluoroazetidin-1-yl)ethyl]-2-oxo-4-(trifluoromethyl)pyridin-1-yl}-3-methyl-15-oxo-8-oxa-16-azatetracyclo[16.3.1.1^{9,13}.0^{2,7}]tricosa-1(22),2(7),3,5,9,11,13(23),18,20-nonaen-17-yl]acetic acid]
8 | 8.70 | Cc1cccc2c1-c1cc(Cl)c(F)c(c1)[C@H](CC(=O)O)NC(=O)[C@@H](n1cc(CCN3CC(F)C3)c(C(F)(F)F)cc1=O)c1cc(ccc1F)O2 (relative stereo) [Example 25, [(14R*,17S)-20-chloro-12,19-difluoro-14-{5-[2-(3-fluoroazetidin-1-yl)ethyl]-2-oxo-4-(trifluoromethyl)pyridin-1-yl}-3-methyl-15-oxo-8-oxa-16-azatetracyclo[16.3.1.1^{9,13}.0^{2,7}]tricosa-1(22),2(7),3,5,9,11,13(23),18,20-nonaen-17-yl]acetic acid]
